Laboratory results published in US9932335B2 (priority 2013, dated 2018).
Where a chain is given by its changes, count along the chain named. pEC50: −log10 of the molar value. Where two headings read alike, the source gives them in different places.

What was measured:
human M1 = molecular target: T1, human M1 (Homo sapiens, UniProt P11229); test: M1 PAM assay (FLIPR intracellular calcium, CHO human M1); type: cell-based
T1 construct: expressed in transfected cells; host or cells: CHO cells
T1 sequence (P11229 1-460): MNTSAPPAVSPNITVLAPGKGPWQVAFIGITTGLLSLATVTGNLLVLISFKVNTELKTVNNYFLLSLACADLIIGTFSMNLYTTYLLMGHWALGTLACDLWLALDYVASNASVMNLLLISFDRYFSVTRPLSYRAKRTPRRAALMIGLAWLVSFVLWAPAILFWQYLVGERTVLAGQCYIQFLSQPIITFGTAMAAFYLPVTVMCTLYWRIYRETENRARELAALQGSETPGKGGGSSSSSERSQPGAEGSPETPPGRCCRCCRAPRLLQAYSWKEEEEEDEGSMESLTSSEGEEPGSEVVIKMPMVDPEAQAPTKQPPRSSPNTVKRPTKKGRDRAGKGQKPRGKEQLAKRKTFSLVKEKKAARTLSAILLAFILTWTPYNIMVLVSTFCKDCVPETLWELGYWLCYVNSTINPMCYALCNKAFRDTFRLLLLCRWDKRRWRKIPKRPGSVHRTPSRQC
Protocol: The assay study the effect of several concentrations of test compounds on basal or acetylcholine-stimulated Ca^2+ levels using FLIPR. CHO human M1 are plated the day before the experiments at 2×10^5 cells/ml in PDL BioCoat 96 well black/clear plate (Becton 35 4640). The cells are grown at 37° C. and 5% CO2 in the following medium: F12 Nut Mix (Gibco 21765), 10% FCS heat inactivated (GIBCO 16000-044), 1% Pen Strep (Gibco, 15140) and 200 μg/ml Geneticin (Gibco 11811). On the day of the experiment, the medium was removed and replaced by 100 μl of dye loading buffer containing Hanks Balanced Salt solution (HBSS, 14065-049, Gibco) with 20 mM HEPES (Gibco 15630-056), 2 mM Probenicid (Sigma P8761), […] (Molecular Probes F-14202), 10% Pluronic acid Molecular Probes P-3000) pH=7.4 and incubated at 37° C. After 60 minutes extracellular dye was removed and the cells were washed five times with FLIPR buffer containing HBSS (Gibco 14065-049) with 20 mM HEPES (Gibco, 15630-056), 2 mM Probenicid (Sigma P8761) pre-warmed at 37° C. using and Ebml cell washer leaving 100 μl of FLIPR buffer in each well. The cell plate and the diluted compounds (1% DMSO final concentration) are placed on the platform of the FLIPR and the door closed. A signal test to check background fluorescence and basal fluorescence signal is performed. Laser intensity is adjusted if necessary. Two minutes preincubation with the diluted test compounds is provide to determine any agonist activity on the M1 receptor by comparison to 30 nM Acetylcholine control. In order to determine any modulator activity the diluted compounds were added to cells and after two minutes preincubation, the EC20 of acetylcholine is added followed by another two minutes preincubation before the measurement of intracellular Ca^2+ with a FLIPR (Molecular Devices).

M1 receptor = molecular target: T2, M1 receptor (Rattus norvegicus, UniProt P08482); test: M1 PAM assay (FLIPR intracellular calcium), rat; type: cell-based
T2 construct: expressed in transfected cells
T2 sequence (P08482 1-460): T1 sequence (P11229 1-460) with A5V, T254S, P309S, R320K, A337G, I413V

[1] = human M1 in CHO cells, modulator activity with EC20 of acetylcholine, FLIPR Ca2+, read-out: EC50 h PAM
[2] = rat, modulator activity with EC20 of acetylcholine, FLIPR Ca2+, read-out: EC50 rat PAM

Compound	pEC50 (human M1; [1])	pEC50 (M1 receptor; [2])	pEC50 (human M1)	pEC50 (M1 receptor)
Cn1cc(-c2ccc(Cn3cc(C(=O)N[C@H](CO)C(C)(C)C)c4ncccc43)c(F)c2)cn1 [Example 27, 1-[2-Fluoro-4-(1-methyl-1H-pyrazol-4-yl)-benzyl]-1H-pyrrolo[3,2-b]pyridine-3-carboxylic acid ((S)-1-hydroxymethyl-2,2-dimethyl-propyl)-amide]	6.90	6.45	–	–
Cn1cc(-c2ccc(Cn3cc(C(=O)NC4CCCCC4)c4ncccc43)c(F)c2)cn1 [Example 28, N-cyclohexyl-1-(2-fluoro-4-(1-methyl-1H-pyrazol-4-yl)benzyl)-1H-pyrrolo[3,2-b]pyridine-3-carboxamide]	–	–	6.55	6.28
Cn1cc(-c2ccc(Cn3cc(C(=O)Nc4ncccc4CO)c4ncccc43)c(F)c2)cn1 [Example 30, 1-[2-Fluoro-4-(1-methyl-1H-pyrazol-4-yl)-benzyl]-1H-pyrrolo[3,2-b]pyridine-3-carboxylic acid (3-hydroxymethyl-pyridin-2-yl)-amide]	–	–	7.08	6.68
Cn1cc(-c2ccc(Cn3cc(C(=O)N[C@H](CO)c4ccccc4)c4ncccc43)c(F)c2)cn1 [Example 32, 1-[2-Fluoro-4-(1-methyl-1H-pyrazol-4-yl)-benzyl]-1H-pyrrolo[3,2-b]pyridine-3-carboxylic acid ((S)-2-hydroxy-1-phenyl-ethyl)-amide]	–	–	7.05	6.56
Cn1cc(-c2ccc(Cn3cc(C(=O)NC[C@@H](O)c4ccccc4)c4ncccc43)c(F)c2)cn1 [Example 34, 1-[2-Fluoro-4-(1-methyl-1H-pyrazol-4-yl)-benzyl]-1H-pyrrolo[3,2-b]pyridine-3-carboxylic acid ((S)-2-hydroxy-2-phenyl-ethyl)-amide]	6.92	6.31	–	–
Cn1cc(-c2ccc(Cn3cc(C(=O)Nc4ncccc4O)c4ncccc43)c(F)c2)cn1 [Example 36, 1-[2-Fluoro-4-(1-methyl-1H-pyrazol-4-yl)-benzyl]-1H-pyrrolo[3,2-b]pyridine-3-carboxylic acid (3-hydroxy-pyridin-2-yl)-amide]	6.96	6.50	–	–
Cn1cc(-c2ccc(Cn3cc(C(=O)N[C@H]4COCC[C@@H]4O)c4ncccc43)c(F)c2)cn1 [Example 41, 1-[[2-fluoro-4-(1-methylpyrazol-4-yl)phenyl]methyl]-N-[(3S,4S)-4-hydroxyoxan-3-yl]pyrrolo[3,2-b]pyridine-3-carboxamide]	7.52	7.29	–	–
Cc1ccc(Cn2cc(C(=O)N[C@H]3CCCC[C@@H]3O)c3ncccc32)cc1 [Example 43, N-((1S,2S)-2-hydroxycyclohexyl)-1-(4-methylbenzyl)-1H-pyrrolo[3,2-b]pyridine-3-carboxamide]	–	–	6.68	6.21
COc1ccc(Cn2cc(C(=O)N[C@H]3CCCC[C@@H]3O)c3ncccc32)cc1F [Example 44, 1-(3-fluoro-4-methoxybenzyl)-N-((1S,2S)-2-hydroxycyclohexyl)-1H-pyrrolo[3,2-b]pyridine-3-carboxamide]	–	–	6.90	6.22
Cc1ccc(Cn2cc(C(=O)N[C@H]3CCCC[C@@H]3O)c3ncccc32)cc1F [Example 46, 1-(3-fluoro-4-methylbenzyl)-N-((1S,2S)-2-hydroxycyclohexyl)-1H-pyrrolo[3,2-b]pyridine-3-carboxamide]	–	–	6.59	6.35
COc1ccc(Cn2cc(C(=O)N[C@H]3CCCC[C@@H]3O)c3ncccc32)cc1 [Example 47, N-((1S,2S)-2-hydroxycyclohexyl)-1-(4-methoxybenzyl)-1H-pyrrolo[3,2-b]pyridine-3-carboxamide]	–	–	6.79	6.66
O=C(N[C@H]1CCCC[C@@H]1O)c1cn(Cc2ccc(C(F)(F)F)nc2)c2cccnc12 [Example 48, N-((1S,2S)-2-hydroxycyclohexyl)-1-((6-(trifluoromethyl)pyridin-3-yl)methyl)-1H-pyrrolo[3,2-b]pyridine-3-carboxamide]	–	–	5.75	6.38
O=C(N[C@H]1CCCC[C@@H]1O)c1cn(Cc2ccc(-c3ccccc3)cc2)c2cccnc12 [Example 49, 1-(biphenyl-4-ylmethyl)-N-((1S,2S)-2-hydroxycyclohexyl)-1H-pyrrolo[3,2-b]pyridine-3-carboxamide]	–	–	6.52	6.29
Cn1ncc2cc(Cn3cc(C(=O)N[C@H]4CCCC[C@@H]4O)c4ncccc43)ccc21 [Example 52, N-((1S,2S)-2-hydroxycyclohexyl)-1-((1-methyl-1H-indazol-5-yl)methyl)-1H-pyrrolo[3,2-b]pyridine-3-carboxamide]	–	–	7.15	6.79
Cn1cc(-c2ccc(Cn3cc(C(=O)N[C@H]4CCCC[C@@H]4O)c4ncccc43)cc2)cn1 [Example 55, N-((1S,2S)-2-hydroxycyclohexyl)-1-(4-(1-methyl-1H-pyrazol-4-yl)benzyl)-1H-pyrrolo[3,2-b]pyridine-3-carboxamide]	–	–	7.95	7.86
Cn1cc(-c2ccc(Cn3cc(C(=O)N[C@H]4CCCC[C@@H]4O)c4ncccc43)cn2)cn1 [Example 56, N-((1S,2S)-2-hydroxycyclohexyl)-1-((6-(1-methyl-1H-pyrazol-4-yl)pyridin-3-yl)methyl)-1H-pyrrolo[3,2-b]pyridine-3-carboxamide]	–	–	7.46	7.15
O=C(N[C@H]1CCCC[C@@H]1O)c1cn(Cc2ccc(-c3nccs3)cc2)c2cccnc12 [Example 60, N-((1S,2S)-2-hydroxycyclohexyl)-1-(4-(thiazol-2-yl)benzyl)-1H-pyrrolo[3,2-b]pyridine-3-carboxamide]	–	–	7.42	6.90
CNC(=O)c1ccc(Cn2cc(C(=O)N[C@H]3CCCC[C@@H]3O)c3ncccc32)cc1 [Example 61, N-((1S,2S)-2-hydroxycyclohexyl)-1-(4-(methylcarbamoyl)benzyl)-1H-pyrrolo[3,2-b]pyridine-3-carboxamide]	–	–	8.04	7.74
O=C(NC1CCOCC1)c1cn(Cc2ccc3[nH]ncc3c2)c2cccnc12 [Example 62]	–	–	6.37	6.49
Cn1cc(-c2ccc(Cn3cc(C(=O)NCc4cccnc4)c4ncccc43)c(F)c2)cn1 [Example 64]	–	–	6.58	5.97
Cn1cc(-c2ccc(Cn3cc(C(=O)NCC4(O)CC4)c4ncccc43)c(F)c2)cn1 [Example 65, 1-(2-fluoro-4-(1-methyl-1H-pyrazol-4-yl)benzyl)-N-((1-hydroxycyclopropyl)methyl)-1H-pyrrolo[3,2-b]pyridine-3-carboxamide]	6.50	5.86	–	–
